Assay in all cases: NCI tumour cell line growth inhibition, 48 h
The test system of experiment [1] is 786-0 renal.
In experiment [2] the test system is CCRF-CEM leukemia.
The subject of experiment [3] is HCT-15 colon.
The subject of experiment [4] is NCI-H226 lung.
Experiment [5] concerns OVCAR-3 ovarian.
For experiment [6], the system named is SF-295 CNS.
Experiment [7] concerns SR leukemia.
The subject of experiment [8] is SW-620 colon.
For experiment [9], the system named is A498 renal.
Experiment [10] deals with T-47D breast.

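These data come from cells grown in 96-well plates and exposed to compound for 48 hours at five concentrations. Abbreviation: GI50, concentration required for 50% inhibition of growth. TGI: total growth inhibition.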 Where only a bound is given, the exact number is not on record here.

Regarding `CC1=NN(C(=O)Cc2ccccc2)C(=O)/C1=C\c1cccc(O)c1`, the TGI in experiment [1], in [2], in experiment [3], in [4], in experiment [5] and in experiment [6] was greater than 100 µM in each case. In addition, the TGI in [7] and in [8] was greater than 100 µM throughout.
In the case of `COc1cc(/C=C2\N=C(c3ccccc3)N(c3ccc(C(=O)c4ccccc4)cc3N3C(=O)/C(=C/c4cc(OC)c(OC)c(OC)c4)N=C3c3ccccc3)C2=O)cc(OC)c1OC`, the TGI in experiment [1] was greater than 100 µM; in [9], 43 µM; in [2] it was 39.8 µM; in experiment [3] it was 39.2 µM; in experiment [5], 16.6 µM; in experiment [6], 55.9 µM. For the same compound, the TGI in experiment [8] turned out to be 40.7 µM; in experiment [10], 26.4 µM.
As for `COC(=O)C1CC(C=O)=C(SC)N1` (stereo unspecified), the TGI in experiment [1], in [9], in experiment [3], in experiment [5], in experiment [6] and in [8] was greater than 50 µM each time.
Turning to `Cc1cc(=O)[nH]c(S(=O)(=O)NC(=S)Nc2ccc(Br)cc2)n1`, the TGI in experiment [1], in experiment [9], in experiment [3], in experiment [4], in experiment [5] and in [6] was greater than 100 µM throughout. Besides, the TGI in [8] and in experiment [10] was greater than 100 µM each time.
Turning to `CCC[CH2][Ge]([CH2]CCC)([CH2]CCC)[O]C(=O)CCl`, the GI50 was 0.406 µM in experiment [2]; 0.546 µM in experiment [3]; 14.1 µM in experiment [4]; 2.33 µM in [5]; 0.836 µM in [7]; 4.19 µM in [8]. In addition, the TGI in experiment [2] was determined as 17.9 µM; in experiment [3], 11.5 µM; in [4], 31.5 µM; in experiment [5], 16.3 µM; in [7] it was 68.5 µM; in experiment [8], 17.4 µM.
Consider `CC1Oc2c(c(O)cc3oc(=O)cc(-c4ccccc4)c23)C(=O)C1C` (stereo unspecified), for which the TGI in experiment [9], in experiment [2], in [3], in [4], in experiment [5] and in [6] was greater than 100 µM throughout. The TGI in experiment [8] was greater than 100 µM.
In the case of `C#Cc1ccccc1C(=O)OC`, the TGI in experiment [9], in experiment [2], in [3], in [4], in [5] and in experiment [6] was greater than 100 µM throughout. Further, the TGI in experiment [7] and in [8] was greater than 100 µM in each case.
As for `Brc1ccc2[nH]cc(-c3nc(-c4c[nH]c5ccncc45)cs3)c2c1`, the values for the GI50 in experiment [9], in experiment [2] and in experiment [6] were 1.81 µM, 2.24 µM and 1.71 µM, respectively. Besides, the TGI in [9] was determined as 3.22 µM; in experiment [2] it was 5.14 µM; in experiment [6] it was 3.14 µM.
Take `O.O=[Se](=O)(O)O.[NH-]C1CCCCC1[NH-].[Pt+2]` (stereo unspecified): the GI50 in experiment [9] is 19.4 µM; in [2] it was 9.8 µM; in experiment [3] it was 8.39 µM; in experiment [4] it was 5.21 µM; in experiment [5], 21.2 µM; in experiment [6] it was 15.4 µM. For the same compound, the GI50 in experiment [8] was 2.11 µM. Also, the TGI in experiment [9] was 97 µM; in [2], greater than 100 µM; in experiment [3], greater than 100 µM; in experiment [4] it was 25.7 µM; in experiment [5], greater than 81.9 µM; in experiment [6], greater than 92.1 µM. In experiment [8], this compound gave a TGI greater than 100 µM.
As to `O=C(c1ccccc1)c1ccc2c(c1)N=C(c1ccc(Cl)c(Cl)c1)CC(c1ccc3ccccc3c1)N2` (stereo unspecified), the TGI in [9], in [2], in [3], in experiment [4], in experiment [6] and in experiment [7] was greater than 100 µM throughout. Moreover, the TGI in experiment [8] was greater than 100 µM.
Turning to `COc1cccc2c1C(=O)c1c(O)c3c(c(O)c1C2=O)C[C@](O)(C(=O)CO)CC3OC1CC(N)C(OC2CCCCO2)C(C)O1` (stereo partly specified), the TGI in experiment [9] is 0.766 µM; in experiment [3] it was 5.14 µM; in experiment [4], 0.434 µM; in experiment [5], 4.56 µM; in experiment [6], 0.672 µM; in experiment [8], 6.48 µM.
Turning to `O=c1oc2ccccc2cc1-c1nc2ccccc2s1`, the TGI in experiment [1] was 10.6 µM; in experiment [9], 29.4 µM; in [4], 33 µM; in experiment [5], 20.7 µM; in [7], greater than 100 µM; in experiment [8] it was 34.8 µM.
Take `COc1cccc(C2c3cc4c(cc3OC(N3CCOCC3)C2C)OCO4)c1` (stereo unspecified): the TGI was greater than 100 µM in [3]; 43.4 µM in [4]; 38.6 µM in experiment [5]; 35.7 µM in [6]; greater than 100 µM in [7]; 16.7 µM in experiment [8]. For the same compound, the TGI in experiment [10] was greater than 100 µM.
In the case of `C=C1C[C@]23CC[C@@H]4C(CO)(CO)CC(=O)C[C@]4(C)[C@@H]2C(O)C[C@H]1C3` (stereo partly specified), the TGI in experiment [1], in experiment [2], in experiment [3], in [4], in [5] and in experiment [6] was greater than 100 µM each time. The TGI in [7] and in experiment [8] was greater than 100 µM throughout.
`COc1ccc(/C(Cl)=C(\C=O)c2ccc(Cl)cc2)cc1`: the TGI was 74 µM in [9]; 11.4 µM in experiment [2]; greater than 100 µM in experiment [3]; 48.1 µM in experiment [4]; 32.1 µM in experiment [5]; 19.1 µM in experiment [6]. Moreover, the TGI in [7] was 6.7 µM; in experiment [8], greater than 100 µM.
`CN(c1ccccc1)c1c(-c2ccccc2)c(=O)oc2c1ccc1occc12`: the TGI was greater than 100 µM in [9]; greater than 100 µM in experiment [2]; greater than 100 µM in experiment [3]; 2.85 µM in [4]; greater than 100 µM in experiment [5]; greater than 100 µM in experiment [6]. The TGI in experiment [8] is greater than 100 µM.

These data come from PubChem BioAssay (NCI).
